The target of one series is BCL-2 (Homo sapiens, UniProt P10415). Particulars: Letai et al., Cancer Cell 2:183-192 (2002); cited from earlier work.
Series [1] concerns chronic lymphocytic leukemia (CLL) cells. Nature of the series: viability/apoptosis of CLL cells electroporated with peptides (Annexin V-FITC/PI flow cytometry). The format is cell-based, human. Particulars: for cell viability (Induction of Apoptosis in CLL Cells), patient sample JCB 178: CLL patient sample JCB 178; for cell viability (Induction of Apoptosis in CLL Cells), patient sample JCB 178 / cell viability (Induction of Apoptosis in CLL Cells), patient sample MA G15 / cell viability (Induction of Apoptosis in CLL Cells), patient sample TJK 328 / cell viability (Induction of Apoptosis in CLL Cells), patient sample TJK 340 #1 / cell viability (Induction of Apoptosis in CLL Cells), patient sample TJK 340 #2 / cell viability (Induction of Apoptosis in CLL Cells), patient sample TJK 375 / cell viability (Induction of Apoptosis in CLL Cells), Av.: peptide electroporated; for cell viability (Induction of Apoptosis in CLL Cells), patient sample TJK 328: CLL patient sample TJK 328; for cell viability (Induction of Apoptosis in CLL Cells), patient sample TJK 340 #1: CLL patient sample TJK 340 #1; for cell viability (Induction of Apoptosis in CLL Cells), patient sample TJK 340 #2: CLL patient sample TJK 340 #2; for cell viability (Induction of Apoptosis in CLL Cells), patient sample TJK 375: CLL patient sample TJK 375; for cell viability (Induction of Apoptosis in CLL Cells), Av.: average of the five preceding patient sample columns; for cell viability of CLL cells / cell viability in all the patient CLL samples: electroporated peptide; for cell viability of CLL cells: FIG. 2; for cell viability in all the patient CLL samples: summary of Table 4. The text has this:
Peripheral blood mononuclear cells (PBMC) from patients with chronic lymphocytic leukemia (CLL) were obtained from the CLL Research Consortium (CRC) tissue bank. Briefly, heparinized peripheral blood was obtained from patients diagnosed with B-CLL according to standard criteria (Chenson et al., Blood 87:4990-4997 (1996)). Lymphocytes were isolated by Ficoll density-gradient centrifugation and verified by immunofluorescence flow cytometry to be composed of greater than 95% CD5/CD19/CD23 triple positive B cells. […] CLL cells were electroporated with a dimethyl sulfoxide (DMSO) control or peptides essentially as described in […] et al., J. Immunol. Methods 275:41-56 (2003), and […] et al., Cancer Res. 63:1242-1248 (2003). For evaluation of apoptosis, at least 5×10^5 cells were recovered by centrifugation and double-stained with Annexin V-FITC, an early marker of apoptosis, and propidium iodide (PI), a nucleic acid-binding vital dye, followed by flow-cytometric analysis using the FL-1 and FL-3 channels of a Becton Dickinson flow cytometer (FACSort; San Jose, Calif.).

For series [2] the following is noted: Letai et al., Cancer Cell 2:183-192 (2002); cited from earlier work.
In a further series the target is T1, GST-Bcl2(1-205) (Homo sapiens, UniProt P10415).
T1 construct: 50 ng GST-Bcl2(1-205; Santa Cruz Biotechnology; Santa Cruz, Calif.); purchased Santa Cruz Biotechnology
T1 sequence (P10415 1-205): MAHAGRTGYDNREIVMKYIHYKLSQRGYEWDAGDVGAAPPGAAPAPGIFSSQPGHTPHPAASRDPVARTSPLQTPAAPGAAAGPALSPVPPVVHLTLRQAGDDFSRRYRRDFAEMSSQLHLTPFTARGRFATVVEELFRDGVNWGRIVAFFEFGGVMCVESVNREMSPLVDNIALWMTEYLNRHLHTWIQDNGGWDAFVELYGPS
Put plainly: competition ELISA for binding of BAD peptides to Bcl-2. Particulars: FIG. 1. Here is the method: To determine binding affinity to Bcl-2, competition ELISA assays were performed essentially as described in Cabezas et al., supra, 2001, with the following components. Briefly, acetyl-Cys(biotin-BMCC)-Ahx-Bad peptide (50 ng peptide/50 μl ELISA buffer) was adsorbed to 96-well neutraAvidin coated microtiter plates. Competition peptides were subsequently mixed with 50 ng GST-Bcl2(1-205; Santa Cruz Biotechnology; Santa Cruz, Calif.) in 50 μl ELISA buffer per titer well and incubated for one hour at 37° C. Wells were washed and treated with 50 μl of a 1/4000 dilution of anti-GST Mab 7E5 (from ascites fluid provided by Shinichi Kitada) in ELISA buffer for one hour at 37° C. Quantification of peptide-bound GST-Bcl2/Mab7E5 complex was carried out with alkaline-phosphatase-conjugated goat […] and p-nitrophenylphosphate substrate as described in Cabezas et al., supra, 2001.

For a further series, the system named is 697-Bcl-2 cells. Put plainly: cell viability assay in 697-Bcl-2 cells. The format is cell-based. Particulars: 697-Bcl2 cells with higher levels of Bcl-2, FIG. 6 and 7. The protocol: (§1) The peptides were tested in cell viability assays essentially as described above in Examples I and II. Experiments were carried out in 697-neo and 697-Bcl-2 cells. 697 cells are from a cell line of preB leukemic cells. 697-Bcl-2 cells have been engineered to express high levels of Bcl-2. AML-349 and AML-728 are myeloblasts (verified by FACS analysis via CD34-positivity) that were isolated from respective patients with acute myelogenous leukemia (AML).

The next series concerns the target Bcl-2 family Bcl-2/x1 (Homo sapiens, UniProt P10415). Nature of the series: binding of penetratin-linked peptides to Bcl-2 (method not described).
A further series has as its system 697-neo cells. Put plainly: cell viability assay in 697-neo cells. The format is cell-based. Particulars: low Bcl-2, FIG. 6. The protocol:
as §1

Series [3] concerns acute myelogenous leukemia (AML) cells. Put plainly: cell viability/apoptosis in patient AML cells. The format is cell-based, human. The protocol:
as §1

Bridges are numbered along the chain shown (N, C = ends). Roman numbers before positions name the chains, in order. Where no end group is shown, it is not given here.

Chain of BCL-2 (P10415 whole entry, species assumed): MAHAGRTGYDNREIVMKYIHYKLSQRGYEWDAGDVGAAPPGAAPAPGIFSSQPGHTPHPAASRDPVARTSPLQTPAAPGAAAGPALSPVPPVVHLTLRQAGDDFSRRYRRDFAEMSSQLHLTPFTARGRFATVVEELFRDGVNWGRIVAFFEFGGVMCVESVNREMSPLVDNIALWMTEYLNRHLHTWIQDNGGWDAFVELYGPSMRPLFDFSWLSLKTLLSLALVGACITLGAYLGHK
Chain of Bcl-2 family Bcl-2/x1 (P10415 1-205): as the sequence (P10415 1-205) above

`CSCC[C@H](NC(=O)[C@H](CCCNC(=N)N)NC(=O)[C@H](CCCNC(=N)N)NC(=O)[C@H](CC(C)C)NC(=O)[C@H](CCC(=O)O)NC(=O)[C@H](CCCNC(=N)N)NC(=O)CNC(=O)[C@H](Cc1ccc(O)cc1)NC(=O)[C@H](CCCNC(=N)N)NC(=O)[C@H](CCC(N)=O)NC(=O)[C@H](C)NC(=O)[C@H](C)NC(=O)[C@H](Cc1c[nH]c2ccccc12)NC(=O)[C@H](CC(C)C)NC(=O)[C@@H](N)CC(N)=O)C(=O)N[C@@H](CO)C(=O)N[C@@H](CC(=O)O)C(=O)N[C@@H](CCC(=O)O)C(=O)N[C@@H](Cc1ccccc1)C(=O)N[C@H](C(=O)N[C@@H](CC(=O)O)C(=O)N[C@@H](CO)C(=O)N[C@@H](Cc1ccccc1)C(=O)N[C@@H](CCCCN)C(=O)N[C@@H](CCCCN)C(=O)O)C(C)C` [SEQ ID NO: 1]: on BCL-2, the Kd was approximately 40 nM. Moreover, in series [1], the cell viability (Induction of Apoptosis in CLL Cells), patient sample JCB 178 is 45%; the cell viability (Induction of Apoptosis in CLL Cells), patient sample MA G15 came out at 4%; the cell viability (Induction of Apoptosis in CLL Cells), patient sample TJK 328 is 42%; the cell viability (Induction of Apoptosis in CLL Cells), patient sample TJK 340 #1 was 46%. In series [1], the cell viability (Induction of Apoptosis in CLL Cells), patient sample TJK 340 #2 was found to be 56%; the cell viability (Induction of Apoptosis in CLL Cells), patient sample TJK 375 was found to be 47%; the cell viability (Induction of Apoptosis in CLL Cells), Av. came to 47%; the “cell viability of CLL cells” value is “minimal or insignificant changes in viability”. The “cell viability in all the patient CLL samples” value in series [1] was “minimally effected”. Further, the apoptotic activity entry in series [2] is “does not have apoptotic activity”.
Turning to “NLWAAQRYGRELRRMADEFVDAFKK [SEQ ID NO: 2]”, the “binding affinity for Bcl-2 compared to wild type BAD peptide” value at GST-Bcl2(1-205) is reported as “significantly higher binding affinity for Bcl-2 than the wild type BAD peptide”. In series [1], this molecule returned a cell viability (Induction of Apoptosis in CLL Cells), patient sample JCB 178 of 12%; a cell viability (Induction of Apoptosis in CLL Cells), patient sample MA G15 of 2%; a cell viability (Induction of Apoptosis in CLL Cells), patient sample TJK 328 of 10%; a cell viability (Induction of Apoptosis in CLL Cells), patient sample TJK 340 #1 of 12%. Further, in series [1], the cell viability (Induction of Apoptosis in CLL Cells), patient sample TJK 340 #2 was 12%; the cell viability (Induction of Apoptosis in CLL Cells), patient sample TJK 375 was determined as 22%; the cell viability (Induction of Apoptosis in CLL Cells), Av. came out at 14%; the “cell viability of CLL cells” value was “significantly reduced”. The “cell viability in all the patient CLL samples” value in series [1] is on record as “dramatically reduced”.
Turning to “acetyl-NLWAAQRYGRELRRMADEFVDAFKKC-CRQIKIWFQNRRMKWKK-amide [2335] (peptide 1 Ac-NLWAAQRYGRELRRMADEFVDAFKKC; peptide 2 CRQIKIWFQNRRMKWKK-NH2; disulfide I:26-II:1) [compound 2335, Bad 2Ser/Ala peptide disulfide linked to penetratin-1]”, the “amount of peptide needed to kill cells” value with 697-Bcl-2 cells was “it takes more 2335 to kill 697 cells with higher levels of Bcl-2”. In the series with Bcl-2 family Bcl-2/x1, the “binding to Bcl-2” value is “binds Bcl-2”. For the same molecule, in the series on 697-neo cells, the “activity in reducing cell viability” value is recorded as “more active in 697-neo cells with low Bcl-2 than a 2336 control peptide”. The “induction of apoptosis / killing” value in series [3] (AML cells of patient AML-349, FIG. 9) is listed as “induced apoptosis”. Moreover, in series [3] (AML cells of patient AML-728, FIG. 8), the induction of apoptosis entry was “induced apoptosis”.

The values above are taken from patent US20060198832A1, “Peptide drugs for chronic lymphocytic leukemia (CLL) and other cancers” (priority 2004, published 2006).
